Data taken from ChEMBL document CHEMBL3507680, “University of Dundee, Gates Library screen for HepG2 cell viability”.

Assay: Human HepG2 cell viability assay in 384 well format
Type: toxicity, cell-based
Parameters: dose 125 nL, time 70.5 hour; cytotoxicity at 70.5 h: concentration not given beside the values
Conditions: HepG2 cells, read-out: Inhibition

Row | Compound | cytotoxicity at 70.5 h [%]
1 | Cc1cnn(CCNCC(O)COc2ccc(Cl)cc2)c1 (configuration not stated) | 2.45
2 | CC(=O)c1cc2c(=O)[nH]c(=O)n(C)c2nc1C | -9.65
3 | CN1CCCC1c1cncc(C(=O)NCC2CC2)n1 (configuration not stated) | -6.82
4 | O=C(Nc1ccccc1OCC(F)F)N[C@@H]1C=C[C@H](CO)C1 | 4.97
5 | CC(O)CN1CCN(Cc2cccc(C(=O)N3CCCCC3)c2)CC1 (configuration not stated) | 17.1
6 | COCCN(C)C(=O)Nc1ccn(-c2cccc(C(F)(F)F)c2)n1 | -2.62
7 | Cc1ccsc1C(=O)N1CC(C(=O)N2CCCC2)C2(CCOCC2)C1 (configuration not stated) | 0.96
8 | CN(C)Cc1cn(-c2ccccc2C(=O)NCCC2CCCN2C)cn1 (configuration not stated) | 24.5
9 | CNC(=O)c1ccc(C(=O)N2CCCC(n3nc(C)cc3C)C2)cn1 (configuration not stated) | -12.8
10 | CN(C)S(=O)(=O)N1CC[C@]2(O)CCN(c3nc4ccccc4s3)C[C@@H]2C1 | 3.99
11 | CCOCC1CN(CCOc2ccc(Cl)cc2)Cc2c1cnn2C (configuration not stated) | 2.89
12 | c1csc(CN2C[C@@H]3COC[C@]3(COCc3ccncc3)C2)c1 | 28.4
13 | CCN1CC(C(=O)N2CCc3cc(C(=O)N(C)C)n(C)c3C2)CCC1=O (configuration not stated) | -6.7
14 | COc1cc2cc(C)c(SCCN3CCCC3)nc2cc1OC | -6.08
15 | Cc1cc(C)n(CC(=O)N2CCC(Nc3cccnn3)CC2)n1 | -5.61
16 | Cc1nc[nH]c1CN1CCN(C(=O)CN2CCCC2)[C@H]2CS(=O)(=O)C[C@H]21 | 3.25
17 | CCOCC(=O)N(Cc1ccccn1)Cc1ccccc1C | -4.52
18 | CC(C)CN1CCc2[nH]cnc2C12CCN(C(=O)c1ccnn1C)CC2 | -2.45
19 | c1ccc(Cn2ccnc2CN2CCOC(Cn3cccn3)C2)cc1 (configuration not stated) | 2.05
20 | O=S(=O)(CC1CCCCC1)NCc1ccc(O)nc1 | -10.2
21 | O=C(c1cccc2c1OCO2)N1CCCCC1Cn1cccn1 (configuration not stated) | -10.8
22 | CNS(=O)(=O)c1cc(C(=O)N(C)Cc2sccc2C)c(C)o1 | -5.52
23 | Cc1noc(C(C)N2CCN(c3ncnc4sccc34)CC2)n1 (configuration not stated) | -7.54

Row | Compound | cytotoxicity at 70.5 h [%]
24 | CC(=O)N1N=C(c2ccncc2)OC1C(=O)N(C)CCc1ccccc1 (configuration not stated) | 4.98
25 | Cn1c(NCC(O)c2ccc(F)cc2)c(C#N)c(=O)n(C)c1=O (configuration not stated) | -5.75
26 | CNc1cc(C2CCCN2Cc2ccccc2OCC(=O)O)ccn1 (configuration not stated) | -5.11
27 | CC(=O)N[C@H]1CCO[C@@H](c2cccc(NC(=O)C(C)(C)C)c2)C1 | -7.68
28 | CCC(=O)N1CCC(O)(c2ncc(OC)nc2OC)CC1 | -12.8
29 | Cn1ccc(C(=O)NCc2cccc(CN3CCCC3)c2)cc1=O | -3.99
30 | CN(C)C(=O)c1ccc(CNc2c(Cl)cccc2C#N)cc1 | 3.41
31 | CCCc1cnc(C)nc1N1CCC2(CC1)CNC(=O)O2 | 10.5
32 | CC(C)OCCCNC(=O)[C@@]12CNC[C@@H]1CN(S(C)(=O)=O)C2 | 13.6
33 | COCCN1CCc2cc(C(=O)O)c(-c3ccoc3)nc2CC1 | -12.3
34 | CN(C)C[C@H]1OC[C@@H]2CCN(C(=O)c3ccco3)C[C@@H]21 | -1.52
35 | [O-][S+](CCN1CCc2[nH]nc(C(F)(F)F)c2C1)c1ccccc1 (configuration not stated) | -6.21
36 | COc1ccnc(NC(=O)c2cscn2)c1 | -10.4
37 | Cc1nccn1-c1cc(CNC(=O)CCC2CCCO2)ccn1 (configuration not stated) | 43.5
38 | COc1ccccc1CC(=O)NC(C)c1nc2cccnc2n1C(C)C (configuration not stated) | -1.11
39 | CN(CC(=O)NC(C)(C)C)Cc1cccc2c1OCCO2 | 33.4
40 | CNC(=O)c1cccc(NCCOc2ccc(CC#N)cc2)c1C | -1.82
41 | Cc1[nH]ccc1C(=O)N1CCC2(CC1)c1nc[nH]c1CCN2CC(C)C | -8.19
42 | CCOc1ccc(N(CCC#N)C(=O)c2ccc(SC)nc2)cc1 | -4
43 | Cc1nn(C)c(C)c1CN(Cc1cccn1-c1ccccn1)C(C)C | 9.47
44 | CN(C)C1CCCN(C(=O)NCCC(=O)N2CCCCCC2)C1 (configuration not stated) | 0.671
45 | NC(=O)C1CN(C(=O)NCC2(c3ccc(F)cc3)CCC2)CCO1 (configuration not stated) | 1.35
46 | CNC(=O)CC1COCCN1C(=O)C1(c2ccc(Cl)cc2)CCC1 (configuration not stated) | 7.35

Row | Compound | cytotoxicity at 70.5 h [%]
47 | CCN(CC)C(=O)CNC(=O)c1ccc(-c2ccsc2)nc1C | 59.9
48 | O=C(CC1CCCC1)N1CCCC(c2n[nH]c3nccnc23)C1 (configuration not stated) | -0.397
49 | O=C(Nc1nccs1)NC1CCN(Cc2ccccc2)C1 (configuration not stated) | -8.23
50 | O=C(Nc1cn[nH]c1)NC1CCN(c2ccccc2OC(F)F)C1 (configuration not stated) | 2.39
51 | CC(C)(C)CN1CCCC(c2nccnc2Nc2cnccn2)C1 (configuration not stated) | -12.3
52 | NC(=O)Nc1cccc(C(=O)N(Cc2ccncc2)C2CC2)c1 | -10.2
53 | CC(C)CC(NS(C)(=O)=O)C(=O)N(C)Cc1nnc2n1CCC2 (configuration not stated) | -8.38
54 | COC(=O)c1ccc(N2CCN(C(=O)c3ccn(C)c(=O)c3)CC2)cc1 | 1.93
55 | Cc1cc(C)cc(N2CC(c3nnc(N)s3)CC2=O)c1 (configuration not stated) | 3.73
56 | c1cnc(NCc2noc3c2CN(CCN2CCCC2)CC3)nc1 | -7.61
57 | Cc1cccc(CNc2ccc(C(=O)N3CCC(CO)CC3)cc2)c1 | -5.19
58 | CCCc1nnc(N2CCC(N3CCCC(O)C3)CC2)o1 (configuration not stated) | 7.96
59 | CSc1ccccc1NC(=O)N1C[C@@H](N(C)C)[C@H](c2ccc(C)cc2)C1 | -13.9
60 | COCc1nc(N(C)C)ncc1C(=O)NC(C)c1ccccc1 (configuration not stated) | -5.51
61 | CCOCC1c2c(ncn2C)CCN1C(=O)c1cnc(C)cn1 (configuration not stated) | -12
62 | CNS(=O)(=O)CC1CCCN1C(=O)c1ccc(C)c(C)c1 (configuration not stated) | 25.9
63 | Cc1cnn(CC2CCCN2C(=O)c2n[nH]c(=O)c3ccccc23)c1 (configuration not stated) | -7.98
64 | O=C(C[C@@H]1COC[C@H]2CN(Cc3cccnc3)C[C@@H]12)N1CCOCC1 | 29.4
65 | Cc1cc(-c2nnn(CCNS(C)(=O)=O)n2)ccc1F | 1.75
66 | c1cc(CCn2ccc(NC3CCSCC3)n2)ccn1 | -3.19
67 | Cc1ccc(C(=O)N(C)Cc2ccc(Br)s2)c(=O)[nH]1 | 2.28
68 | CCc1ncnc2c1CCN(CCOC)CC2 | -9.59
69 | Cc1nc(-c2ccccc2)sc1C(=O)N(C1CC1)C1CC(=O)NC1=O (configuration not stated) | -8.02

Row | Compound | cytotoxicity at 70.5 h [%]
70 | CN(C)c1nc2c(c(N3CCC(O)CC3)n1)CN(CC1CCOC1)CC2 (configuration not stated) | -3.69
71 | CC(=O)NCCNC(=O)NCc1ccc(-n2ccc(C(F)(F)F)n2)cc1 | -6.79
72 | O=C(c1ccc(Cn2cccc2)cc1)N1CCN(CCO)CC1 | -4.52
73 | Cc1ncoc1C(=O)N1CCOC(CCCC(C)C)C1 (configuration not stated) | -8.44
74 | COc1cc(NC(=O)N2CCCC2c2nncn2C)ccc1Br (configuration not stated) | -4.18
75 | COCCn1cncc1-c1nc2c([nH]1)CC(C)(C)CNC2=O | -4.1
76 | OCCc1cn(CC2CCCN(Cc3nccs3)C2)nn1 (configuration not stated) | 11.8
77 | COCCN1C(=O)[C@H]2CC[C@@H]1CN(S(=O)(=O)c1ccc(OC)cc1)C2 | -3.09
78 | CCc1noc(C)c1C(=O)N(C)Cc1ncc(C)c(OC)c1C | -30.2
79 | O=C1CN(C(=O)CC2c3ccccc3CCc3ccccc32)CCN1 | 2.75
80 | CN(C)CCNC(=O)c1ccc(OC2CCN(CC3CC3)CC2)c(Cl)c1 | 0.798
81 | CNC(=O)C(C)CN(C)C(=O)Nc1ccc(F)c(-n2cccc2)c1 (configuration not stated) | 0.178
82 | CN(C)CCNc1cc(-c2ncccc2O)c2cc[nH]c2n1 | -7.75
83 | Cc1ccc(CN(C)CC(=O)NC2(C)CCS(=O)(=O)C2)cc1 (configuration not stated) | -3.98
84 | Cc1cc2nc(CO[C@H]3CN(C)C[C@H]3F)[nH]c2cc1C | -0.513
85 | c1cc2c(cc1CN1CC[C@H]3[C@H]1CCN3CC1CC1)OCO2 | -1.51
86 | Cc1cnc(CN(C)C2CCN(Cc3nc4ccccc4s3)C2)o1 (configuration not stated) | 51.7
87 | CN(C)[C@H]1COC[C@@H]2CN(Cc3ccc4c(c3)OCO4)C[C@@H]21 | -3.62
88 | Cc1nsc(N2CCN(C(=O)Nc3ccc4[nH]ccc4c3)CC2)n1 | 1.81
89 | Cc1cc(N2CCC(N(C)C(=O)c3ccc(C#N)cc3)CC2)nc(C)n1 | -7.65
90 | Cc1ccccc1C1(CNC(=O)c2cccc(S(C)(=O)=O)c2)CC1 | 20.2
91 | CCc1nc(C)c(CNC(=O)CCCN2CCCCC2)s1 | -1.08
92 | CC(C)N(Cc1cccnc1)C(=O)CNc1ccc(C#N)cc1 | -12.5

Row | Compound | cytotoxicity at 70.5 h [%]
93 | COc1cccc(CNC(=O)c2nc3c(o2)CN(S(C)(=O)=O)C3)c1 | -6.24
94 | COc1ccc(-c2nc(CC(=O)N(C)CCC#N)cs2)cc1OC | 5.07
95 | CCCc1noc(C2CCN(C(=O)C3CCCO3)CC2)n1 (configuration not stated) | -13.7
96 | Cc1ccc(OCCC(=O)NC(C)c2ccncc2)cc1 (configuration not stated) | -2.16
97 | CCCC(=O)NCCc1cc(N2CCN(C(C)=O)CC2)nc(C2CC2)n1 | -6.31
98 | CCc1cnc(N2C[C@H]3C[C@H](C(=O)N4CCOCC4)[C@@H](C2)O3)nc1 | -6.74
99 | COCCN1CC2(CCC1=O)CCN(Cc1cc(F)ccc1Cl)CC2 | 6.46
100 | CC(C)(C)n1cc(CNC2CCN(C(=O)c3ccncc3)CC2)cn1 | -1.24
101 | COc1cc(N2C[C@H]3CCC[C@@H](CN(C)C4CC4)[C@H]3C2)ncn1 | -1.7
102 | Cc1noc([C@]23COC[C@H]2CN(Cc2cc(C)on2)C3)n1 | 47.3
103 | O=C(NCCn1ccnc1)N1CCN(Cc2ccsc2)CC1 | 9.21
104 | COc1ccc(N2CCN(CC(O)c3ccc(C)cc3C)CC2)cc1 (configuration not stated) | -3.49
105 | COc1ccc(CNc2n[nH]c(C)n2)cc1 | -11.8
106 | CCCC(=O)N1CCC2(CC1)OCCO2 | -2.35
107 | CN1CCCC1c1nnc2n1CCN(S(=O)(=O)c1ccccc1Cl)CC2 (configuration not stated) | -8.1
108 | CC(C)OCCn1nnnc1Cc1ccc(Br)cc1 | -5.01
109 | Cc1nccn1CC1CCN(C(=O)c2cccs2)CC1 | -17.8
110 | CN(C)CCNC(=O)c1nc2c(o1)CN(C(=O)c1cccnc1)C2 | 10.9
111 | Cc1c(C(=O)N2CCC3(CCCN(CC4CC4)C3=O)C2)ccn1C (configuration not stated) | 15.8
112 | CCOCCc1nc(CCc2ccccc2)n[nH]1 | -6.03
